Data: patent publication US20240262791A1, “B[…] […] AMINO ACIDS” (priority 2021, published 2024)

How the values were obtained:
[1] = healthy volunteers in phase I trial, patients in phase II trial; cited from earlier work
[2] = system: HeLa-EGFP (182TAG) reporter cells; assay: Genetic incorporation of mFSY in HeLa-EGFP (182TAG) reporter cells; type: cell-based; settings: no mFSY added or 1 mM mFSY added
From the text: FIGS. 12A-12C: Genetic incorporation of mFSY into proteins in mammalian cells. FIG. 12A: FACS analysis of mFSY incorporation into HeLa-EGFP (182TAG) cells. Negative control cells were either not transfected with any plasmid or were not treated with mFSY. FACS data is representative of three biological replicates. FIG. 12B: Bar graph showing total EGFP fluorescence percentage from FACS data. Error bar: s.d., n=3. FIG. 12C: Fluorescence microscopy and brightfield images of HeLa-EGFP (182TAG) reporter cells under two conditions: no mFSY added or 1 mM mFSY added.

GST = assay: Cross-linking of GST-103SFY-107X in live mammalian cells; type: cell-based; settings: SFY at site 103 of GST, residue 107 varied, HEK293T cells
Protocol: […] of pcDNA-GST-103TAG-107X (X=A, H, Y or K)^3 and […] of pNEU-MmSFYRS-4xU6M15 were co-transfected into target cells using 5 μL of lipofectamine 2000 following the manufacturer's instructions. Six hours post transfection, the media were replaced with complete DMEM media with or without 1 mM SFY. The cells were incubated at 37° C. for additional 48 h, collected, and applied for immunoblot analysis.

[3] = SFY crosslinking of protein residues and RNA in cells; type: cell-based; settings: E. coli and HEK293T cells
Protocol: FIG. 4B: Fluorescence confocal images HEK293 cells expressing EGFP(40TAG) gene and the Mm-tRNA^Pyl/MmSFYRS with and without 1 mM SFY. FIG. 4C: Flow cytometric analysis of SFY incorporation into EGFP(40TAG) in HEK293 cells using Ma-tRNA^Pyl/MaSFYRS. […] FIGS. 4E-4F: Analysis of crosslinking of Afb(24SFY) with MBP-Z(7X) in E. coli cells. Western blot of E. coli cell lysate (FIG. 4E); SDS-PAGE of proteins His-tag purified from E. coli (FIG. 4F). Maltose binding protein (MBP) was fused to the N-terminus of Z protein to better separate Z from Afb in size. […] FIG. 4H: Western blot analysis of lysate of HEK293T cells expressing GST(103SFY-107X). X is the target residue indicated. FIG. 4I: Western blot analysis E. coli cells expressing Hfq with SFY incorporated at site 25 or 49. Cell lysate samples were treated with or without RNase before loading, and an anti-His antibody was used to detect the 6×His tag appended at the C-terminus of expressed Hfq.

[4] = system: nucleoside monophosphates (NMPs: AMP, UMP, CMP, or GMP); assay: In vitro incubations of NMPs and SFY; settings: 50 mM SFY, 50 mM NMP, 37° C.
Protocol: In addition, to check if SFY could cross-link all four nucleotides, we incubated 50 mM SFY with 50 mM different nucleoside monophosphates (NMPs: AMP, UMP, CMP, or GMP) at 37° C. for 16 hours.
50 mM SFY (HCl salt) and 50 mM NMP was incubated in DI H2O. 50 mM NaOH was added to neutralize the HCl salt. The mixture was incubated at 37° C. for 48 h. Then the reaction mixture was diluted for 50 times in H2O/acetonitrile (50/50, v/v, with 0.1% trifluoracetic acid) and subjected to mass spectrum analysis using positive mode. Mass spectrum analysis was performed on SCIEX MDS, 3200 Q TRAP system.

HEK293T cells = type: cell-based; settings: 0 to 1 mM SFY, 24-48 h
Protocol: 2×10^4 cells/well of HEK293T cells were seeded in a 96-well plate. On the next day, the media were replaced with fresh DMEM media supplemented with 0, 0.0625, 0.125, 0.25, 0.5, or 1 mM of SFY. The SFY-treated and control cells were cultured for an additional 24-48 h at 37° C. and then analyzed with CellTiter-Blue® Cell Viability Assay following the manufacturer's instructions.

Afb7X = Afb7X and MBP-Z(24F-FSY) cross-linking; type: biochemical; settings: MBP-Z(24F-FSY) with Afb7X, PBS pH 7.4, 37° C., 12 h
Protocol: We also introduced F-FSY into the maltose binding protein (MBP) fused Z protein at position 24 (MBP-Z(24F-FSY)). The purified MBP-Z(24F-FSY) was analyzed by electrospray ionization time-of-flight mass spectrometry (ESI-TOF MS). A peak observed at 50829 Da corresponds to intact MBP-Z containing F-FSY at site 24 (data not shown). We then tested the reactivities of F-FSY towards amino acid residue using the binding complex of MBP-Z and the Zspa affibody (Afb). Upon Afb-Z binding, F-FSY would be place in close proximity with the residue at position 7 of Afb (Afb7X) and would form a covalent bond with the targeting residue, causing protein-protein cross-linking.
0.5 mg/ml Afb7X and 1 mg/ml MBP-Z(24F-FSY) were incubated in PBS (pH 7.4) at 37° C. for 12 h, after which 1 j.tL reaction solution was extracted and mixed with 10 j.tL Laemmli loading buffer. The mixture was heated to 95° C. for 10 min and then loaded for SDS-PAGE, after which the gel was stained with Coomassie blue and imaged with ChemiDoc™ MP imaging system (Bio-rad).

WT Spike RBD = molecular target: T1, WT Spike RBD (Severe acute respiratory syndrome coronavirus 2, UniProt P0DTC2); type: biochemical, SARS-CoV-2
T1 construct: SARS-CoV-2 spike protein, RBD, 6His tag (S protein) was purchased from ACRObiosystems (#SRD-C52H3); purchased ACRObiosystems #SRD-C52H3

rhACE2
safety and tolerability [1]: safe and well tolerated

NC(Cc1cccc(OS(=O)(=O)F)c1)C(=O)O [mFSY, meta-fluorosulfate-L-tyrosine]
EGFP fluorescence (mFSY incorporation) [2]: Fluorescence is only seen after the addition of mFSY

COc1ccc(CC(N)C(=O)O)cc1S(=O)(=O)F (centres unmarked) [SFY, o-sulfonyl fluoride-O-methyltyrosine]
residues reacting with SFY placed in proximity (GST): react with His, Tyr, and Lys
crosslinking capability of SFY [3]: allows crosslinking of His, Tyr, Lys residues in protein and of RNA in cells
cross-linking adducts with NMPs detected by MS [4]: Cross-linking adducts of SFY with all four NMPs were detected
toxicity to HEK293T cells (HEK293T cells): did not observe obvious toxicity

NC(Cc1ccc(OS(=O)(=O)F)c(F)c1)C(=O)O (centres unmarked) [FFY]
residues forming a covalent bond with F-FSY (Afb7X): form a covalent bond with Lys, His and Tyr
PERx reaction rate over FSY in the mNB6 system (WT Spike RBD): 240%
